From patent US11564928B1, “Cannabinoid receptor type 2 (CB2) modulators and uses thereof” (Teon Therapeutics, Inc., priority 2020, dated 2023)
Like-named read-outs stand apart in the source and are kept apart here.

What was measured:
[1] = molecular target: human CB2 receptor (Homo sapiens (Human), UniProt P34972); experiment: CB2 receptor binding assay ([3H]CP-55,940 displacement, HEK-293 membranes)
Protocol: The compounds were evaluated in CB1R and CB2R binding assays using membranes from HEK-293 cells transfected with cDNAs encoding the human recombinant CB1R (Bmax=[…] protein) and human recombinant CB2R (Bmax=[…] protein) (Perkin-Elmer). […] Compounds were tested following the procedure described by the cell membrane manufacturer. […] CB2R binding assays were carried out with two different buffers: incubation buffer (Tris-HCl, 50 mM; MgCl2, 5 mM; CaCl2 1 mM; BSA, 0.2% at pH 7.4) and washing buffer (Tris-HCl, 50 mM; NaCl 500 mM; BSA, 0.1% at pH 7.4). […] Assays were performed in duplicate and incubated for […] at 37° C. […] Data are analyzed and IC50 is calculated using GraphPad Prism 5 and the model “log(inhibitor) vs. response—Variable slope”. The binding affinity of the compounds is Determined by Using the Cheng and Prusoff Equation Ki=IC50/(1+[radioligand]/Kd).

[2] = molecular target: human recombinant CB1R (Homo sapiens (Human), UniProt P21554); experiment: CB1 receptor binding assay ([3H]CP-55,940 displacement, HEK-293 membranes)
Protocol: The compounds were evaluated in CB1R and CB2R binding assays using membranes from HEK-293 cells transfected with cDNAs encoding the human recombinant CB1R (Bmax=[…] protein) and human recombinant CB2R (Bmax=[…] protein) (Perkin-Elmer). […]. Compounds were tested following the procedure described by the cell membrane manufacturer. […] CB2R binding assays were carried out with two different buffers: incubation buffer (Tris-HCl, 50 mM; MgCl2, 5 mM; CaCl2 1 mM; BSA, 0.2% at pH 7.4) and washing buffer (Tris-HCl, 50 mM; NaCl 500 mM; BSA, 0.1% at pH 7.4). […] Assays were performed in duplicate and incubated for […] at 37° C. After the incubation, the assay mixture is filtered through 96 GF/C filter plates (Perkin Elmer #6005174) using Perkin Elmer Filtermate Harvester, and then washed four times with ice-cold washing buffer. The filters are dried for 1 hour at 50° C. and [^3H] trapped on filter counted for radioactivity in Perkin Elmer Microscint 20 cocktail (#6013329) using Perkin Elmer MicroBeta2 Reader. […] Data are analyzed and IC50 is calculated using GraphPad Prism 5 and the model “log(inhibitor) vs. response—Variable slope”. The binding affinity of the compounds is Determined by Using the Cheng and Prusoff Equation Ki=IC50/(1+[radioligand]/Kd).

[3] = membranes of HEK-293 cells with human recombinant CB1R, [3H]CP-55,940, class symbols, read-out: CB1 IC50
[4] = membranes of HEK-293 cells with human recombinant CB2R, [3H]CP-55,940, class symbols, read-out: CB2 IC50
[5] = membranes of HEK-293 cells with human recombinant CB2R, [3H]CP-55,940, read-out: CB2 IC50
[6] = membranes of HEK-293 cells with human recombinant CB1R, [3H]CP-55,940, read-out: CB1 IC50

human recombinant CB1R, sequence (P21554 whole entry): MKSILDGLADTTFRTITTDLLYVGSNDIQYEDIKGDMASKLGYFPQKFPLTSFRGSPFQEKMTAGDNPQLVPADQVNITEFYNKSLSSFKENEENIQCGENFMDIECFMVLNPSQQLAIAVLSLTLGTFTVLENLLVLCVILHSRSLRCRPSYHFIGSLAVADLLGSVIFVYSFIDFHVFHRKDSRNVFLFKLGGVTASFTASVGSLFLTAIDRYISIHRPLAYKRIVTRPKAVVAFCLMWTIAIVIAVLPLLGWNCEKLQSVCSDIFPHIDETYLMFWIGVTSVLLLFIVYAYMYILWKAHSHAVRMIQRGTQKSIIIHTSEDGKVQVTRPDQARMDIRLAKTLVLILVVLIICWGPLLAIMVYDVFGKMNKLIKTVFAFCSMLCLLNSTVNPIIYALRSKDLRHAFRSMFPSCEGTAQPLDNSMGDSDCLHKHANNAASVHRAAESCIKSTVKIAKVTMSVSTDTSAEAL
human CB2 receptor, sequence (P34972 whole entry): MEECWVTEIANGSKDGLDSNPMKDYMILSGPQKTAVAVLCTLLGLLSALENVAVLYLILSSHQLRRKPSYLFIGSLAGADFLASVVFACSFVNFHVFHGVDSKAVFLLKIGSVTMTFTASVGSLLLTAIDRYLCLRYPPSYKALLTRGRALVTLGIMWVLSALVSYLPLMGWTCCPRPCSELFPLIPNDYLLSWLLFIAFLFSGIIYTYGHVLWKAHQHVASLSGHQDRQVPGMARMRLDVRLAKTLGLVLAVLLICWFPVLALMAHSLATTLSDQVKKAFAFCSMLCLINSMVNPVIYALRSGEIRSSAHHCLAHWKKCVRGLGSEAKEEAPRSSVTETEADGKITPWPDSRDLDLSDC

Row | SMILES | IC50 [1] | IC50 [2, 3] | IC50 [1, 4] | IC50 [1, 5] | IC50 [2, 6] | further results
1 | CC(NC(=O)c1c(O)c2cc(Br)cnc2n(Cc2ccc(F)cc2)c1=O)c1ccc(F)cc1 (stereo not shown) [Compound 1, 6-bromo-1-(4-fluorobenzyl)-N-(1-(4-fluorophenyl)ethyl)-4-hydroxy-2-oxo-1,2-dihydro-1,8-naphthyridine-3-carboxamide] | 100 to 999 nM | > 1000 nM |  |  |  | 
2 | O=C(NC1CC2(CCC2)C1)c1c(O)c2cc(Br)cnc2n(Cc2ccc(F)cc2)c1=O [Compound 2, 6-bromo-1-(4-fluorobenzyl)-4-hydroxy-2-oxo-N-(spiro[3.3]heptan-2-yl)-1,2-dihydro-1,8-naphthyridine-3-carboxamide] | 100 to 999 nM | > 1000 nM |  |  |  | 
3 | CC(NC(=O)c1c(O)c2cc(Br)cnc2n(Cc2ccc(F)cc2)c1=O)c1ccc(C#N)cc1 (stereo not shown) [Compound 3, 6-bromo-N-(1-(4-cyanophenyl)ethyl)-1-(4-fluorobenzyl)-4-hydroxy-2-oxo-1,2-dihydro-1,8-naphthyridine-3-carboxamide] | 100 to 999 nM | > 1000 nM |  |  |  | 
4 | O=C(NC12CC(C1)C2)c1c(O)c2cc(-c3ccc(OC(F)F)cc3)cnc2n(CCN2CCOCC2)c1=O [Compound 12, N-(bicyclo[1.1.1]pentan-1-yl)-6-(4-(difluoromethoxy)phenyl)-4-hydroxy-1-(2-morpholinoethyl)-2-oxo-1,2-dihydro-1,8-naphthyridine-3-carboxamide] |  | > 1000 nM | > 1000 nM |  |  | 
5 | CC1CCC(NC(=O)c2c(O)c3cc(-c4ccc(C5CC5)cc4)cnc3n(CCN3CCOCC3)c2=O)CC1 (stereo not shown) [Compound 17, 6-(4-cyclopropylphenyl)-4-hydroxy-N-(4-methylcyclohexyl)-1-(2-morpholinoethyl)-2-oxo-1,2-dihydro-1,8-naphthyridine-3-carboxamide] | 100 to 999 nM | > 1000 nM |  |  |  | 
6 | CC1CCC(NC(=O)c2c(O)c3cc(-c4ccc(OC(C)C)cc4)cnc3n(CCN3CCOCC3)c2=O)CC1 (stereo not shown) [Compound 18, 4-hydroxy-6-(4-isopropoxyphenyl)-N-(4-methylcyclohexyl)-1-(2-morpholinoethyl)-2-oxo-1,2-dihydro-1,8-naphthyridine-3-carboxamide] |  | > 1000 nM | > 1000 nM |  |  | 
7 | CC(NC(=O)c1c(O)c2cc(-c3ccc(C#N)cn3)cnc2n(CCN2CCOCC2)c1=O)c1ccc(F)cc1 (stereo not shown) [Compound 21, 6-(5-cyanopyridin-2-yl)-N-(1-(4-fluorophenyl)ethyl)-4-hydroxy-1-(2-morpholinoethyl)-2-oxo-1,2-dihydro-1,8-naphthyridine-3-carboxamide] | 100 to 999 nM | > 1000 nM |  |  |  | 
8 | N#Cc1ccc(-c2cnc3c(c2)c(O)c(C(=O)NC2CC4(CCC4)C2)c(=O)n3CCN2CCOCC2)nc1 [Compound 22, 6-(5-cyanopyridin-2-yl)-4-hydroxy-1-(2-morpholinoethyl)-2-oxo-N-(spiro[3.3]heptan-2-yl)-1,2-dihydro-1,8-naphthyridine-3-carboxamide] | 100 to 999 nM | > 1000 nM |  |  |  | 
9 | O=C(NC1CC2(CCC2)C1)c1c(O)c2cc(-c3ccc(F)cc3)ccc2n(CCN2CCOCC2)c1=O [Compound 23, 6-(4-fluorophenyl)-4-hydroxy-1-(2-morpholinoethyl)-2-oxo-N-(spiro[3.3]heptan-2-yl)-1,2-dihydroquinoline-3-carboxamide] |  |  | < 100 nM |  |  | IC50 [2]: 100 to 999 nM
10 | CC(NC(=O)c1c(O)c2cc(-c3ccc(C#N)cn3)cnc2n(Cc2ccc(F)cc2)c1=O)c1ccc(C#N)cc1 (stereo not shown) [Compound 24, N-(1-(4-cyanophenyl)ethyl)-6-(5-cyanopyridin-2-yl)-1-(4-fluorobenzyl)-4-hydroxy-2-oxo-1,2-dihydro-1,8-naphthyridine-3-carboxamide] |  | > 1000 nM | > 1000 nM |  |  | 
11 | O=C(NC1CC2(CCC2)C1)c1c(O)c2cc(-c3ccc(OC(F)F)cn3)cnc2n(CCN2CCOCC2)c1=O [Compound 25, 6-(5-(difluoromethoxy)pyridin-2-yl)-4-hydroxy-1-(2-morpholinoethyl)-2-oxo-N-(spiro[3.3]heptan-2-yl)-1,2-dihydro-1,8-naphthyridine-3-carboxamide] |  | > 1000 nM | > 1000 nM |  |  | 
12 | COc1ccc(-c2cnc3c(c2)cc(C(=O)NC2CCC(C)(C)CC2)c(=O)n3CCN2CCOCC2)cc1 [Compound 26, N-(4,4-dimethylcyclohexyl)-6-(4-methoxyphenyl)-1-(2-morpholinoethyl)-2-oxo-1,2-dihydro-1,8-naphthyridine-3-carboxamide] |  |  |  | 2.2 nM | > 10000 nM | 
13 | COc1ccc(-c2cnc3c(c2)cc(C(=O)NC2CCC(F)(F)CC2)c(=O)n3CCN2CCOCC2)cc1 [Compound 27, N-(4,4-difluorocyclohexyl)-6-(4-methoxyphenyl)-1-(2-morpholinoethyl)-2-oxo-1,2-dihydro-1,8-naphthyridine-3-carboxamide] |  |  |  | 2 nM | > 10000 nM | 
14 | COc1ccc(-c2cnc3c(c2)cc(C(=O)NC2CCC4(CC2)CC4)c(=O)n3CCN2CCOCC2)cc1 [Compound 28, 6-(4-methoxyphenyl)-1-(2-morpholinoethyl)-2-oxo-N-(spiro[2.5]octan-6-yl)-1,2-dihydro-1,8-naphthyridine-3-carboxamide] |  |  |  | 0.7 nM | > 10000 nM | 
15 | O=C(NC1CC2(CCC2)C1)c1cc2cc(-c3ccc(F)cc3)cnc2n(CCN2CCOCC2)c1=O [Compound 32, 6-(4-fluorophenyl)-1-(2-morpholinoethyl)-2-oxo-N-(spiro[3.3]heptan-2-yl)-1,2-dihydro-1,8-naphthyridine-3-carboxamide] |  |  |  | 0.8 nM | 39 nM | 
16 | O=C(NC1CC2(CCC2)C1)c1cc2cc(-c3ccccn3)cnc2n(CCN2CCOCC2)c1=O [Compound 34, 1-(2-morpholinoethyl)-2-oxo-6-(pyridin-2-yl)-N-(spiro[3.3]heptan-2-yl)-1,2-dihydro-1,8-naphthyridine-3-carboxamide] |  |  |  | 1 nM | 184 nM | 
17 | O=C(NC1CC2(CCC2)C1)c1cc2cc(-c3ccncn3)cnc2n(CCN2CCOCC2)c1=O [Compound 35, 1-(2-morpholinoethyl)-2-oxo-6-(pyrimidin-4-yl)-N-(spiro[3.3]heptan-2-yl)-1,2-dihydro-1,8-naphthyridine-3-carboxamide] |  |  |  | 7.5 nM | 358 nM | 
18 | O=C(NC1CC2(CCC2)C1)c1cc2cc(-c3ccc(F)cn3)cnc2n(CCN2CCOCC2)c1=O [Compound 37, 6-(5-fluoropyridin-2-yl)-1-(2-morpholinoethyl)-2-oxo-N-(spiro[3.3]heptan-2-yl)-1,2-dihydro-1,8-naphthyridine-3-carboxamide] |  |  |  | 0.6 nM | 112 nM | 
19 | O=C(NC1CC2(CCC2)C1)c1cc2cc(-c3ncccn3)cnc2n(CCN2CCOCC2)c1=O [Compound 38, 1-(2-morpholinoethyl)-2-oxo-6-(pyrimidin-2-yl)-N-(spiro[3.3]heptan-2-yl)-1,2-dihydro-1,8-naphthyridine-3-carboxamide] |  |  | < 100 nM |  |  | IC50 [2]: 100 to 999 nM
20 | COc1ccc(-c2ccc3c(c2)cc(C(=O)NC2CCC(C)(C)CC2)c(=O)n3CCN2CCOCC2)cc1 [Compound 39, N-(4,4-dimethylcyclohexyl)-6-(4-methoxyphenyl)-1-(2-morpholinoethyl)-2-oxo-1,2-dihydroquinoline-3-carboxamide] |  |  |  | 1.2 nM | > 10000 nM | 
21 | CC(NC(=O)c1cc2cc(-c3ccc(C#N)cn3)cnc2n(CCN2CCOCC2)c1=O)c1ccc(C#N)cc1 (stereo not shown) [Compound 41, N-(1-(4-cyanophenyl)ethyl)-6-(5-cyanopyridin-2-yl)-1-(2-morpholinoethyl)-2-oxo-1,2-dihydro-1,8-naphthyridine-3-carboxamide] | 100 to 999 nM | > 1000 nM |  |  |  | 
22 | O=C(NC12CC(C1)C2)c1cc2cc(-c3ccc(OC(F)F)cc3)cnc2n(CCN2CCOCC2)c1=O [Compound 54, N-(bicyclo[1.1.1]pentan-1-yl)-6-(4-(difluoromethoxy)phenyl)-1-(2-morpholinoethyl)-2-oxo-1,2-dihydro-1,8-naphthyridine-3-carboxamide] |  | > 1000 nM | < 100 nM |  |  | 
23 | CC(NC(=O)c1cc2cc(-c3ccc(C#N)cn3)cnc2n(CC(C)(C)N2CCOCC2)c1=O)c1ccc(F)cc1 (stereo not shown) [Compound 56, 6-(5-cyanopyridin-2-yl)-N-(1-(4-fluorophenyl)ethyl)-1-(2-methyl-2-morpholinopropyl)-2-oxo-1,2-dihydro-1,8-naphthyridine-3-carboxamide] |  | > 1000 nM | < 100 nM |  |  | 
